Experimental findings from patent publication US20070129430A1, “Agent for enhancing the production of collagen, their preparation and use” (priority 2003, published 2007) are described below.

For experiment [1], the system named is NHDF cells. As to the kind of experiment: collagen assay: collagen production level of NHDF cells (Sircol Soluble Collagen Assay Kit). The class given is cell-based, human. Particulars: for concentration dependence of the action of enhancing collagen production (FIG. 3) / order of the levels of action of enhancing collagen production next to 10-HDA (FIG. 3): 0.02 to 1.5 mM fatty acid with 50 μM AA2G; for action of enhancing collagen production (FIG. 1): 5 days culture; for action of enhancing the collagen production by L-ascorbic acid: used in combination with L-ascorbic acid. The procedure: NHDF cells, a human fibroblast, were seeded in a 96-well microplate (commercialized by Becton Dickinson, N.J., USA) with […] (designated as “DMEM medium” hereinafter, commercialized by Nissui Pharmaceutical Co., Ltd., Tokyo, Japan)(pH 7.1 to 7.4), supplemented with 10% (v/v) fetal calf serum and an adequate amount of penicillin, to give a cell density of 2.5×10^4 cells/well, and incubated at 37° C. for 24 hours under a 5% (v/v) CO2 condition. Thereafter, the supernatant was replaced with 200 μl of a DMEM medium supplemented with a sample having a prescribed concentration and/or 50 μM of L-ascorbic acid 2-glucoside (a product name of “AA2G” with a purity of 98.0% or over, produced by Hayashibara Biochemical Laboratories, Inc., Okayama, Japan), and further cultured for another five days. After completion of the culture, the collagen production level from cells in each well of the microplate was quantified by using “Sircol™ Soluble Collagen Assay Kit”, commercialized by Biocolar Ltd., Northern Ireland.
The action of enhancing the collagen production by 10-HDA was examined by the collagen assay shown in Experiment 1. In the collagen assay, 150 μg/ml of 10-HDA and/or a DMEM medium containing 50 μM of the same AA2G as used in Experiment 1 were used to examine the action of enhancing the collagen production by 10-HDA. As a control, there were provided two systems with 50 μM of AA2G or a DMEM medium free of AA2G, both of which were free of sample. The results are in FIG. 1.
The relationship between the concentration of 10-HDA and the action of enhancing collagen production was also studied. In the collagen assay, using a DMEM medium containing 0 to 300 μg/ml of 10-HDA as a sample and 50 μM of AA2G, the action of enhancing the collagen production by 10-HDA was examined. As a control, a DMEM medium containing 50 μM of AA2G free of sample was provided. The results are in FIG. 2.
The results are in FIG. 3.
To examine the influence of 10-HDA on the action of enhancing the collagen production by L-ascorbic acid or AA2G, the following experiment was conducted: In the collagen assay shown in Experiment 1, the levels of collagen production in cell culture by L-ascorbic acid or 10-HDA were compared and analyzed using a DMEM medium containing as a sample 0, 0.1, 0.2 or 0.5 mg/ml of 10-HDA and 50 μM of L-ascorbic acid or AA2G as L-ascorbic acids in terms of L-ascorbic acid, and another DMEM medium containing as a sample 0, 0.1, 0.2 or 0.5 mg/ml of 10-HDA but free of L-ascorbic acids. The results are in FIG. 4.

The subject of experiment [2] is TGF-β production in human fibroblasts (NHDF cells). As to the kind of experiment: TGF-β production in human fibroblasts (TGF-β1 Emax ImmunoAssay System). The experiment is classed as cell-based. Particulars: for enhancement of TGF-β production: concrete data not shown; for TGF-β production level: 24 hours, culture supernatant. The procedure:
NHDF cells, a human fibroblast, commercialized by Kurabo Industries Ltd., Okayama, Japan, were seeded in 96-well microplates (commercialized by Becton Dickinson, N.J., USA) with a DMEM medium supplemented with 10% (v/v) fetal calf serum to give a cell density of 2.5×10^4 cells/well, and incubated for 24 hours under a 5% (v/v) CO2 condition. Thereafter, the supernatant in each microplate was removed, replaced with a fresh DMEM medium containing 0, 0.5 or 1.5 mM of 10-HDA and 0.2 μg/ml of AA2G, and cultured for 24 hours. After completion of the culture, the level of TGF-β in a supernatant of each well of the microplates was quantified by using “TGF-β1 E MAX IMMUNO ASSAY SYSTEM”, commercialized by Promega Corp., Wis., USA, and the data were statistically handled.

Molecules are shown by their SMILES.

On to `CCCCCCCC=CC(=O)O` [2-decenoic acid], for which, in experiment [1], the “concentration dependence of the action of enhancing collagen production (FIG. 3)” value is recorded as “roughly in a concentration dependent manner”; the “order of the levels of action of enhancing collagen production next to 10-HDA (FIG. 3)” value was “in the order of 10-hydroxydecanoic acid, 2-decenoic acid, decanoic acid, and sebacic acid”. The “enhancement of TGF-β production” value in experiment [2] is “also enhance TGF-β production”.

As to `O=C(O)C=CCCCCCCCO` [10-HDA, 10-hydroxy-2-decenoic acid], the “action of enhancing collagen production (FIG. 4)” value in experiment [1] (0, 0.1, 0.2 or 0.5 mg/ml 10-HDA in the presence of 50 μM AA2G (in terms of L-ascorbic acid)) was “action of enhancing collagen production in a concentration dependent manner”; in experiment [1] (0, 0.1, 0.2 or 0.5 mg/ml 10-HDA in the presence of 50 μM L-ascorbic acid), “action of enhancing collagen production in a concentration dependent manner”. For the same molecule, in experiment [1] (0 to 300 μg/ml 10-HDA with 50 μM AA2G), the “concentration dependence of the action of enhancing collagen production (FIG. 2)” value is given as “concentration-dependent action of enhancing collagen production”. Moreover, the “action of enhancing collagen production (FIG. 1)” value in experiment [1] (150 μg/ml 10-HDA in combination with 50 μM AA2G) is recorded as “distinct action of enhancing collagen production”; in experiment [1] (150 μg/ml 10-HDA, absence of AA2G), “did not show the action of enhancing collagen production”. In experiment [1] (0.02, 0.06, 0.17, 0.5 or 1.5 mM fatty acid with 50 μM AA2G), the “action of enhancing collagen production (FIG. 3)” value is on record as “significantly high action of enhancing collagen production”. Moreover, in experiment [1] (10-HDA with 50 μM AA2G versus 50 μM L-ascorbic acid), the “action of enhancing collagen production with AA2G relative to that attained with L-ascorbic acid (FIG. 4)” value was “about two-times higher”. Further, in experiment [1] (used alone, without L-ascorbic acid), the “action of inducing collagen production when used alone” value is reported as “did not show an action of inducing collagen production”. Further, the “action of enhancing the collagen production by L-ascorbic acid” value in experiment [1] was “exhibited an action of enhancing the collagen production by L-ascorbic acid”; in experiment [1] (listed as Ingredient X) it was “This result coincided with that of Ingredient X”. Besides, the “concentration giving maximum action of enhancing collagen production (FIG. 3)” value in experiment [1] (with 50 μM AA2G) is ≥ 0.17 mM. For the same molecule, the values for the TGF-β production level in experiment [2] (0.5 mM 10-HDA with 0.2 μg/ml AA2G) and in experiment [2] (1.5 mM 10-HDA with 0.2 μg/ml AA2G) were 292 ± 68 pg/mL and 378 ± 74 pg/mL, respectively. Besides, the “enhancement of TGF-β production in human fibroblasts” value in experiment [2] (in the presence of AA2G, 0 to 1.5 mM) is “enhances the TGF-β production in human fibroblasts in a concentration dependent manner”.

On to `O=C(O)CCCCCCCCCO` [10-hydroxydecanoic acid], for which, in experiment [1], the “concentration dependence of the action of enhancing collagen production (FIG. 3)” value is “roughly in a concentration dependent manner”; the “order of the levels of action of enhancing collagen production next to 10-HDA (FIG. 3)” value is “in the order of 10-hydroxydecanoic acid, 2-decenoic acid, decanoic acid, and sebacic acid”. Besides, in experiment [2], the “enhancement of TGF-β production” value was “also enhance TGF-β production”.

Take `CCCCCCCCCC(=O)O` [decanoic acid]: in experiment [2], the “enhancement of TGF-β production” value is given as “also enhance TGF-β production”.

Consider `O=C1O[C@H]([C@@H](O)CO)C(O)=C1O[C@H]1O[C@H](CO)[C@@H](O)[C@H](O)[C@H]1O` [AA2G, L-ascorbic acid 2-glucoside], for which the “action of enhancing collagen production of L-ascorbic acid derivatives used in combination with fatty acids” value in experiment [1] (in combination with fatty acids such as 10-HDA, concrete data not shown) is listed as “more remarkable action of enhancing collagen production”.

Regarding `O=C(O)CCCCCCCCC(=O)O` [sebacic acid], the “enhancement of TGF-β production” value in experiment [2] is on record as “also enhance TGF-β production”.
